Experimental data: ChEMBL document CHEMBL5303573, “Mapping human microbiome drug metabolism by gut bacteria and their genes” (Nature, 2019)

Key:
[1] = The drug is tested on Bifidobacterium breve strain: DSM20213 for biotransformation. The drug concentrations were measured before and after a 12-h incubation by liquid-chromatography-coupled mass spectrometry (LC–MS); details: 2 µM
[2] = The drug is tested on Bifidobacterium longum subsp. Infantis strain: CCUG52486 for biotransformation. The drug concentrations were measured before and after a 12-h incubation by liquid-chromatography-coupled mass spectrometry (LC–MS); details: 2 µM
[3] = The drug is tested on Collinsella aerofaciens strain: ATCC25986 for biotransformation. The drug concentrations were measured before and after a 12-h incubation by liquid-chromatography-coupled mass spectrometry (LC–MS); details: 2 µM
[4] = The drug is tested on Bacteroides dorei strain: DSM17855 for biotransformation. The drug concentrations were measured before and after a 12-h incubation by liquid-chromatography-coupled mass spectrometry (LC–MS); details: phocaeicola dorei, 2 µM
[5] = The drug is tested on Bacteroides finegoldii strain: DSM17565 for biotransformation. The drug concentrations were measured before and after a 12-h incubation by liquid-chromatography-coupled mass spectrometry (LC–MS); details: 2 µM
[6] = The drug is tested on Bacteroides fragilis strain: HMW610 for biotransformation. The drug concentrations were measured before and after a 12-h incubation by liquid-chromatography-coupled mass spectrometry (LC–MS); details: 2 µM
[7] = The drug is tested on Bacteroides uniformis strain: ATCC8492 for biotransformation. The drug concentrations were measured before and after a 12-h incubation by liquid-chromatography-coupled mass spectrometry (LC–MS); details: 2 µM
[8] = The drug is tested on Anaerococcus hydrogenalis strain: DSM7454 for biotransformation. The drug concentrations were measured before and after a 12-h incubation by liquid-chromatography-coupled mass spectrometry (LC–MS); details: 2 µM
[9] = The drug is tested on Anaerotruncus colihominis strain: DSM17241 for biotransformation. The drug concentrations were measured before and after a 12-h incubation by liquid-chromatography-coupled mass spectrometry (LC–MS); details: 2 µM
[10] = The drug is tested on Clostridium asparagiforme strain: DSM15981 for biotransformation. The drug concentrations were measured before and after a 12-h incubation by liquid-chromatography-coupled mass spectrometry (LC–MS); format: ADME; parameters: dose 2 uM, timepoint 0 vs 12 hours; details: enterocloster asparagiformis, 2 µM
[11] = The drug is tested on Coprococcus comes strain: ATCC27758 for biotransformation. The drug concentrations were measured before and after a 12-h incubation by liquid-chromatography-coupled mass spectrometry (LC–MS); format: ADME; parameters: dose 2 uM, timepoint 0 vs 12 hours; details: 2 µM
[12] = The drug is tested on Dorea formicigenerans strain: ATCC27755 for biotransformation. The drug concentrations were measured before and after a 12-h incubation by liquid-chromatography-coupled mass spectrometry (LC–MS); details: 2 µM
[13] = The drug is tested on Eubacterium hallii strain: DSM3353 for biotransformation. The drug concentrations were measured before and after a 12-h incubation by liquid-chromatography-coupled mass spectrometry (LC–MS); details: anaerobutyricum hallii, 2 µM
[14] = The drug is tested on Eubacterium rectale strain: ATCC33656 for biotransformation. The drug concentrations were measured before and after a 12-h incubation by liquid-chromatography-coupled mass spectrometry (LC–MS); details: agathobacter rectalis, 2 µM
[15] = The drug is tested on Subdoligranulum variabile strain: DSM15176 for biotransformation. The drug concentrations were measured before and after a 12-h incubation by liquid-chromatography-coupled mass spectrometry (LC–MS); details: 2 µM
[16] = The drug is tested on Escherichia coli strain: BW25113 for biotransformation. The drug concentrations were measured before and after a 12-h incubation by liquid-chromatography-coupled mass spectrometry (LC–MS); details: 2 µM
[17] = The drug is tested on Providencia stuartii strain: ATCC25827 for biotransformation. The drug concentrations were measured before and after a 12-h incubation by liquid-chromatography-coupled mass spectrometry (LC–MS); details: 2 µM
[18] = bacteroides fragilis, 12 h, 2 µM
Description: The drug is tested on Bacteroides fragilis strain: 3397 (T10) for biotransformation. The drug concentrations were measured before and after a 12-h incubation by liquid-chromatography-coupled mass spectrometry (LC–MS)

[19] = parabacteroides distasonis, 12 h, 2 µM
Description: The drug is tested on Parabacteroides distasonis strain: ATCC8503 for biotransformation. The drug concentrations were measured before and after a 12-h incubation by liquid-chromatography-coupled mass spectrometry (LC–MS)

[20] = The drug is tested on Bacteroides fragilis strain: HMW615 for biotransformation. The drug concentrations were measured before and after a 12-h incubation by liquid-chromatography-coupled mass spectrometry (LC–MS); details: 2 µM

Bacterial Biotransformation [1] | Bacterial Biotransformation [2] | Bacterial Biotransformation [3] | Bacterial Biotransformation [4] | Bacterial Biotransformation [5] | Bacterial Biotransformation [6] | Bacterial Biotransformation [7] | Bacterial Biotransformation [8] | Bacterial Biotransformation [9] | Bacterial Biotransformation [10] | Bacterial Biotransformation [11] | Bacterial Biotransformation [12] | Bacterial Biotransformation [13] | Bacterial Biotransformation [14] | Bacterial Biotransformation [15] | Bacterial Biotransformation [16] | Bacterial Biotransformation [17] | Bacterial Biotransformation [18] | Bacterial Biotransformation [19] | Bacterial Biotransformation [20] | SMILES
Compound NOT metabolized | Compound NOT metabolized | Compound NOT metabolized | Compound NOT metabolized | Compound NOT metabolized | Compound NOT metabolized | Compound NOT metabolized | Compound NOT metabolized | Compound NOT metabolized | Compound NOT metabolized | Compound NOT metabolized | Compound NOT metabolized | Compound NOT metabolized | Compound NOT metabolized | Compound NOT metabolized | Compound NOT metabolized | Compound NOT metabolized | Compound NOT metabolized | – | – | CCCC(=O)Nc1ccc(OCC(O)CNC(C)C)c(C(C)=O)c1 (stereo not given) [ACEBUTOLOL]
Compound metabolized | Compound NOT metabolized | Compound metabolized | Compound metabolized | Compound NOT metabolized | Compound metabolized | Compound metabolized | Compound metabolized | Compound metabolized | Compound metabolized | Compound metabolized | Compound metabolized | Compound NOT metabolized | Compound NOT metabolized | Compound NOT metabolized | Compound metabolized | Compound metabolized | Compound metabolized | Compound metabolized | – | c1ccc([C@H]2CN3CCSC3=N2)cc1 [LEVAMISOLE]
Compound metabolized | Compound metabolized | Compound metabolized | Compound metabolized | Compound metabolized | Compound NOT metabolized | Compound metabolized | Compound metabolized | Compound metabolized | Compound metabolized | Compound metabolized | Compound metabolized | Compound metabolized | Compound metabolized | Compound metabolized | Compound metabolized | Compound metabolized | Compound metabolized | Compound metabolized | – | CC[C@H](C)C(=O)O[C@H]1CCC=C2C=C[C@H](C)[C@H](CC[C@@H]3C[C@@H](O)CC(=O)O3)[C@H]21 [MEVASTATIN]
Compound metabolized | Compound metabolized | Compound metabolized | Compound metabolized | Compound metabolized | Compound metabolized | Compound metabolized | Compound metabolized | Compound metabolized | Compound metabolized | Compound metabolized | Compound metabolized | Compound metabolized | Compound metabolized | Compound metabolized | – | Compound NOT metabolized | Compound metabolized | Compound metabolized | Compound metabolized | CCS(=O)(=O)CCn1c([N+](=O)[O-])cnc1C [TINIDAZOLE]
Compound metabolized | Compound metabolized | Compound metabolized | Compound metabolized | Compound metabolized | Compound metabolized | Compound metabolized | Compound metabolized | Compound metabolized | Compound metabolized | Compound metabolized | Compound metabolized | Compound metabolized | Compound metabolized | Compound metabolized | – | Compound metabolized | Compound metabolized | Compound metabolized | Compound metabolized | CC(=O)Nc1ccc(OC(C)=O)cc1 [DIACETAMATE]
Compound metabolized | Compound metabolized | Compound metabolized | Compound metabolized | Compound metabolized | Compound metabolized | Compound metabolized | Compound metabolized | Compound metabolized | Compound metabolized | – | Compound metabolized | Compound metabolized | Compound metabolized | Compound metabolized | Compound metabolized | Compound metabolized | Compound metabolized | Compound metabolized | – | CCCc1nc(C(C)(C)O)c(C(=O)OCc2oc(=O)oc2C)n1Cc1ccc(-c2ccccc2-c2nnn[nH]2)cc1 [OLMESARTAN MEDOXOMIL]

SMILES | Bacterial Biotransformation [1] | Bacterial Biotransformation [2] | Bacterial Biotransformation [3] | Bacterial Biotransformation [4] | Bacterial Biotransformation [5] | Bacterial Biotransformation [6] | Bacterial Biotransformation [7] | Bacterial Biotransformation [8] | Bacterial Biotransformation [9] | Bacterial Biotransformation [10] | Bacterial Biotransformation [11] | Bacterial Biotransformation [12] | Bacterial Biotransformation [13] | Bacterial Biotransformation [14] | Bacterial Biotransformation [15] | Bacterial Biotransformation [16] | Bacterial Biotransformation [17] | Bacterial Biotransformation [18] | Bacterial Biotransformation [19] | Bacterial Biotransformation [20]
Cc1nc2n(c(=O)c1CCN1CCC(c3noc4cc(F)ccc34)CC1)CCCC2 [RISPERIDONE] | Compound metabolized | Compound NOT metabolized | Compound NOT metabolized | – | Compound NOT metabolized | Compound metabolized | Compound NOT metabolized | Compound metabolized | Compound metabolized | Compound metabolized | Compound metabolized | – | Compound metabolized | Compound metabolized | Compound metabolized | Compound NOT metabolized | – | Compound NOT metabolized | Compound NOT metabolized | –
CN1CCC(=C2c3ccccc3CCc3cccnc32)CC1.O=C(O)/C=C\C(=O)O.O=C(O)/C=C\C(=O)O [AZATADINE MALEATE] | Compound NOT metabolized | Compound NOT metabolized | Compound NOT metabolized | – | Compound NOT metabolized | Compound NOT metabolized | – | Compound NOT metabolized | Compound NOT metabolized | Compound NOT metabolized | Compound NOT metabolized | Compound NOT metabolized | Compound NOT metabolized | Compound NOT metabolized | Compound NOT metabolized | Compound NOT metabolized | Compound NOT metabolized | Compound NOT metabolized | Compound NOT metabolized | –
